Consider twelve molecules from patent US10076525B2, “Sex steroid precursors alone or in combination with selective estrogen receptor modulators for the prevention and treatment of dyspareunia in postmenopausal women” (ENDORECHERCHE, INC., priority 2004, dated 2018).

Each structure is given as a SMILES string. Counter-ions that a name gives are not always drawn.

Assay [1] relates to rat vagina. Kind of assay: Comparison of SERMs: vaginal epithelium morphology in the OVX rat (Example 2). The conditions noted are these: OVX rats, 0.5 mg/kg oral daily.
Protocol: Ten to twelve week-old female Sprague-Dawley rats (Crl:CD(SD)Br) (Charles River Laboratory, St-Constant, Canada) weighing 215-265 g at time of ovariectomy were used. The animals were housed individually in an environmentally-controlled room (temperature: 22±3° C.; humidity: 50±20%; 12-h light-12-h dark cycles, lights on at 07:15 h). The animals were allowed free access to tap water and a certified rodent feed (Lab Diet 5002 (pellet), Ralston Purina, St-Louis, Mo.).
Different experiments were performed: two 20-day and two 8-month studies. In each of the two first experiments, the animals were randomly distributed between 3 groups of 13 or 14 animals as follows: 1) Intact control; 2) Ovariectomized (OVX) control; 3) OVX+raloxifene (0.5 mg/kg), or, 3) OVX+LY 363381 (0.5 mg/kg). […] In the other 8-month study, the animals were randomly distributed between 3 groups of 10-11 animals as follows: 1) Intact control; 2) Ovariectomized (OVX) control; 3) OVX+lasofoxifene (0.5 mg/kg). […] The tested compounds were then given once daily by oral gavage as a suspension in 0.4% methylcellulose (0.5 ml/rat) from day 1 to day 20 of the study or from day 1 to week 32 of the study.
Twenty-four hours after the last dosing, the animals were sacrificed under isoflurane anesthesia by exsanguination. The vaginae were collected and immersed in 10% neutral buffered formalin immediately after resection. […] The segments were then routinely processed and embedded in paraffin blocks. When appropriate, all the segments were positioned in the paraffin block in a sequence corresponding to their original anatomical position and oriented perpendicular to the surface of the block, thus allowing the segments to be cut in cross-sections. For each animal, a 4 μm-thick paraffin section was cut and stained with haematoxylin-eosin for morphological examination.
The test system of a further assay is estrogen receptor. In words: Testing of antiestrogens for SERM function.
Assay [2] deals with rat vagina. In words: Histological evaluation of epithelium, lamina propria and muscularis in the seven rat vaginal segments. The class given is in vivo. The conditions noted are these: OVX rats, 36 wk. An excerpt:
The animals were housed individually and were allowed free access to water and rodent food (Lab Diet 5002, Ralston Purina, St-Louis, Mo.).
(§1) Animals from the intact and OVX control groups received the vehicle alone.
(§2) Twenty-four hours after the last dosing, overnight fasted animals were sacrificed under isoflurane anesthesia by exsanguination at the abdominal aorta (9 animals per group) or by intracardiac perfusion with 10% neutral buffered formalin (5 animals per group). Vaginae from non-perfused animals were collected and weighed, while the vaginae collected from perfused animals were marked with black ink on the ventral side, and then trimmed as described below.
(§3) The entire vagina of each perfused animal was post-fixed in 10% neutral buffered formalin.
The degree of compactness of collagen fibers in the vagina was categorized as low, moderate and high (FIGS. 6A-6C, respectively), as observed in the area proximal to the epithelium. <<Low>> and <<moderate compactness>> were associated with the presence of coarse collagen fibers loosely or less loosely aggregated together, respectively, while <<high compactness>> was the term used to describe tightly packed fine collagen fibers, displaying a smooth, textured appearance. In all the animals, there were relatively few fibrocytes in proportion to the amount of collagen, and they appeared predominantly flattened and shrunken.

In another assay the test system is AR. In words: Immunohistochemistry of AR in fifth vaginal segment. Conditions: OVX rats, 36 wk. The class given is in vivo, rat. The method, then: as §1
(§4) Immunostaining was performed using Zymed SP kits (San Francisco, Calif.). Paraffin sections (4 μm) were deparaffinized in toluene and rehydrated through ethanol. Endogenous peroxidase activity was eliminated by preincubation with 3% H2O2 in methanol for 30 min. A microwave retrieval technique using citrate buffer (Tacha and Chen, 1994) was applied. After cooling the slides, non-specific binding was blocked using 10% goat serum for 20 min. Sections were then incubated for 1.5 h at room temperature with ERα (AB-1, Calbiochem, California), AR (N-20, Santa Cruz Biotechnology, California) or PR (Ab-4, NeoMarkers, California) antibodies, at 1:200, 1:250 and 1:250 respectively. After washing in PBS buffer, sections were incubated with biotinylated anti-rabbit secondary antibody for 10 min and thereafter with streptavidin-peroxidase for another 10 min. Diaminobenzidine was used as the chromogen to visualize the biotin/streptavidin-peroxidase complex, under microscope monitoring. Counterstaining was performed using #2 Gill's hematoxylin for 30 sec. For controls, immunoabsorption with an excess of the peptide used to raise the antibody, or substitution with non immune rabbit IgG, was performed.

A further assay concerns PR. In words: Immunohistochemistry of PR in fifth vaginal segment. Format: in vivo, rat. Conditions: OVX rats, 36 wk. The method, then: as §1, §4
In assay [3] the test system is rat vagina. In words: Vaginal weight after 36 weeks of treatment. Format: in vivo. Conditions: OVX rats, 36 wk, versus OVX.
From the text: as §1, §2
(§5) Data are presented as means±SEM of 8-9 animals per group for vaginal weight or 5 animals per group for vaginal layer thickness determinations. Statistical significance was determined according to the multiple-range test of Duncan-Kramer (Kramer, 1956, Biometrics, 12: 307-310).

For assay [4], the system named is rat vagina. In words: Histomorphometry: thickness of vaginal layers at the fifth segment. Conditions: OVX rats, 36 wk, fifth segment, mean±SEM. Format: in vivo.
From the text: as §1, §2, §3
Measurements of the different vaginal layers were performed on the fifth segment (FIG. 1), which is approximately halfway between the middle region and the portio vaginalis uteri (segment 7). […] Images were captured with a DC-330 3CCD color camera (Dage-MTI, Michigan City, Ind., USA) and quantified using Image-Pro Plus 3.0 software (Media Cybernetics, Silver Spring, Md., USA). Thus, using a ×5 objective (Leica Microsystems, Willowdale, Ont., Canada), 3 to 4 thickness measurements per layer were obtained from representative areas of the epithelium and muscularis, and for the three vaginal layers together. The total vaginal thickness, the thickness of the epithelium and the thickness of the muscularis were thus measured. The thickness of the lamina propria was obtained by subtracting the thickness of the epithelium and muscularis from total vaginal thickness.
as §5

Setting [5] is: Acolbifene 2.5, Premarin 0.5 mg/kg oral, DHEA 80 mg/kg dorsal skin, segment 1.

`COc1ccc(-c2sc3cc(O)ccc3c2Oc2ccc(OCCN3CCCCC3)cc2)cc1` [LY 363381]: the “mucous cell layer(s) overlying the basal cell layer, middle of the vagina” value in the assay with rat vagina [1] (20-day study) is listed as “many”.
Regarding `Cc1c(-c2ccc(O)cc2)n(Cc2ccc(OCCN3CCCCC3)cc2)c2ccc(O)cc12` [ERA-923], the “mucous cell layer(s) overlying the basal cell layer, middle of the vagina” value in the assay with rat vagina [1] (8-month study) is reported as “one”.
In the case of `CC/C(=C(\c1ccccc1)c1ccc(OCCN(C)C)cc1)c1ccccc1` [Tamoxifen, (Z)-2-[4-(1,2-diphenyl-1-butenyl)]-N,N-dimethylethanamine], the “function as SERM” value in the assay with estrogen receptor was “found to function as SERMs”.
Turning to `CC/C(=C(/c1ccc(OCCN(C)C)cc1)c1cccc(O)c1)c1ccccc1` [Droloxifene], in the assay on estrogen receptor, the “function as SERM” value was “found to function as SERMs”.
For the molecule `O=C(c1ccc(OCCN2CCCCC2)cc1)c1c(-c2ccc(O)cc2)sc2cc(O)ccc12` [Raloxifene], the “function as SERM” value in the assay with estrogen receptor was “found to function as SERMs”. Moreover, the “mucous cell layer(s) overlying the basal cell layer, middle of the vagina” value with rat vagina [1] (20-day study) is on record as “many”.
In the case of `COc1ccc(-c2sc3cc(O)ccc3c2Oc2ccc(OCCN3CCCCC3)cc2)cc1` [Arzoxifene], in the assay on estrogen receptor, the “function as SERM” value is “found to function as SERMs”.
Consider `C[C@]12CC[C@@H]3c4ccc(O)cc4C[C@@H](CCCCCCCCC[S+]([O-])CCCC(F)(F)C(F)(F)F)[C@H]3[C@@H]1CC[C@@H]2O` (stereo partly shown) [ICI 182,780], for which the “function as SERM” value with estrogen receptor is “found not to function as SERM”.
With `Cc1c(-c2ccc(O)cc2)n(Cc2ccc(OCCN3CCCCCC3)cc2)c2ccc(O)cc12` [TSE-424], in the assay with estrogen receptor, the “function as SERM” value is given as “found to function as SERMs”. Also, the “mucous cell layer(s) overlying the basal cell layer, middle of the vagina” value in the assay on rat vagina [1] (8-month study) is on record as “one”.
As for `CC1=C(c2ccc(OC(=O)C(C)(C)C)cc2)[C@H](c2ccc(OCCN3CCCCC3)cc2)Oc2cc(OC(=O)C(C)(C)C)ccc21` [EM-800], the “function as SERM” value with estrogen receptor was “found to function as SERMs”.
Consider `Oc1ccc2c(c1)CC[C@H](c1ccccc1)[C@@H]2c1ccc(OCCN2CCCC2)cc1` [lasofoxifene, (−)-cis-(5R,6S)-6-phenyl-5-[4-(2-pyrrolidin-1-ylethoxy)phenyl]-5,6,7,8-tetrahydronaphthalen-2-ol, D-(−)-tartrate salt], for which, in the assay with estrogen receptor, the “function as SERM” value is reported as “found to function as SERMs”. Besides, the “mucous cell layer(s) overlying the basal cell layer, middle of the vagina” value with rat vagina [1] (8-month study) is given as “many”.
For `CC/C(=C(\c1ccccc1)c1ccc(/C=C/C(=O)O)cc1)c1ccccc1` [GW-5638], in the assay with estrogen receptor, the “function as SERM” value is listed as “found to function as SERMs”.
For the molecule `CC1=C(c2ccc(O)cc2)[C@H](c2ccc(OCCN3CCCCC3)cc2)Oc2cc(O)ccc21.Cl` [Acolbifene], in the assay on rat vagina [2] (setting [5]), the “compactness of collagen fibers (lamina propria)” value is recorded as “M-M”. In addition, the lamina propria thickness result in the assay with rat vagina [2] (setting [5]) is “M-M”; with rat vagina [4] (total minus epithelium and muscularis, OVX 76±2, intact 135±28), 60±8 μm. The epithelium morphology result is given as “SCM-A” with rat vagina [2] (Acolbifene 2.5, Premarin 0.5 mg/kg oral, DHEA 80 mg/kg dorsal skin, segment 2); “SCM-A” in the assay with rat vagina [2] (Acolbifene 2.5, Premarin 0.5 mg/kg oral, DHEA 80 mg/kg dorsal skin, segment 3); “SCM-A” with rat vagina [2] (Acolbifene 2.5, Premarin 0.5 mg/kg oral, DHEA 80 mg/kg dorsal skin, segment 4); “SCM-A” in the assay with rat vagina [2] (Acolbifene 2.5, Premarin 0.5 mg/kg oral, DHEA 80 mg/kg dorsal skin, segment 5); “SCM-A” in the assay with rat vagina [2] (Acolbifene 2.5, Premarin 0.5 mg/kg oral, DHEA 80 mg/kg dorsal skin, segment 6); “SCM-A” in the assay on rat vagina [2] (Acolbifene 2.5, Premarin 0.5 mg/kg oral, DHEA 80 mg/kg dorsal skin, segment 7). In the assay with rat vagina [2] (OVX controls 4-6 layers), the “epithelium thickness of segment 1 (external opening)” value was 9-11 cell layers. In addition, in the assay on rat vagina [2] (moderate to severe inflammation in all OVX animals), the “animals showing signs of minimal inflammation” value is recorded as “three out of five”. For the same molecule, the results for the “AR: labeling intensity” value in the assay with AR (epithelium), in the assay on AR (lamina propria) and in the assay with AR (muscularis) were “++”, “+++” and “+++”, respectively. Also, the “AR: semi-quantitative evaluation of labeled nuclei” value with AR (epithelium) turned out to be 2; with AR (lamina propria), 1; in the assay on AR (muscularis), 1. The “PR: semi-quantitative evaluation of labeled nuclei” value with PR (epithelium), in the assay on PR (lamina propria) and in the assay on PR (muscularis) was 0 throughout. Further, the “effect on vaginal weight” value with rat vagina [3] is “no effect”. For the same molecule, the “mucous cell layer(s) overlying the basal cell layer, middle of the vagina” value in the assay with rat vagina [1] (8-month study) was “one”. Besides, the “total vaginal wall thickness” value with rat vagina [4] (OVX 128±3, intact 262±39) was 108±8 μm.
